Test results taken from US10457710B2, “Antimicrobial peptides, their variants and uses” (priority 2015, dated 2019).
Where a SMILES comes first, the peptide text is derived from it. [ ]: non-standard residue; d: D form.

How the values were obtained:
[1] = test system: clinical strains of bacteria and yeasts; test: MIC, all clinical bacteria and yeasts tested together; assay type: cell-based; settings: bacterial strains other than E. coli
Procedure: Minimum inhibition concetrations (MICs) were determined against Escherichia coli (ATCC 25922), Staphylococcus aureus (ATCC 25923), Klebsiella pneumoniae (ATCC 10031) and Pseudomonas aeruginosa (ATCC 27853). Also clinical strains of E. coli, K. pneumoniae, E. cloacae, P. aeruginosa, Serratia marcescens, Proteus mirabilis, S. pneumoniae, Acinetobacter baumannii, A. johnsonii and S. aureus were used for MICs assays. Additionally, clinical strains of yeast including Candida albicans, C. glabrata, C. parapsilosis and C. quillermondiae were used. The susceptibility of these microorganisms to Chain peptides were determined using micro broth dilution assay. Colonies of the respective microorganism from Muller Hinton (MH) agar plates incubated overnight were suspended in MH broth media and final concentration of microorganism was adjusted to 5.0×10^5 cfu/ml. An aliquot of 10 μl of each Chain peptide, or gentamicin, tetracycline as reference antibiotics were added in differing concentrations along with 90 μl of bacterial suspension to 96 well polypropylene plates and incubated at 37° C. for 20 to 24 hours. Concentrations of Chain peptides and reference antibiotics ranged from 0.125 to 128 μg/ml and the MICs were recorded as the lowest concentration with no visual growth of bacteria. Similarly, antifungal MICs were tested in Potato dextrose broth. […]

MRSA strains = test: MIC, synergistic activity with Ertapenem (4 μg/ml); assay type: cell-based, S. aureus; settings: Ertapenem 4 μg/ml; D-peptide
Procedure: Peptides Chain 104, Chain 105, Chain 201, Chain 308, Chain 310 were tested against antibiotic-sensitive strains of S. aureus RN4220 and methicillin resistant strains of S. aureus COL (MRSA). Chain peptides comprising of either L- or D-form amino acids were tested against these bacteria, and the D-form peptides were found have better activity compared to L-form (Table 6). Synergistic activity of chain peptides along with Ertapenem (4 μg/ml) was tested to know whether it will influence the activity against MRSA strains. […] Chain 310 has the best antibacterial activity against the MRSA strains with a MIC of 0.06 & 0.03 μg/ml along with Ertapenem (4 μg/ml) for both forms of L and D-peptides (Table 6).

[2] = test system: Escherichia coli (ATCC 25922), Staphylococcus aureus (ATCC 25923), Klebsiella pneumoniae (ATCC 10031) and Pseudomonas aeruginosa (ATCC 27853); test: Radial diffusion assay, four ATCC bacterial strains together; assay type: cell-based; settings: Gentamicin 5 μg
Procedure: (§1) The radial diffusion assay (RDA) was carried out as described by Andersen et al. (2010). Briefly, 30 ml of 1/10 Muller-Hinton broth (MHB) supplemented with 1% agarose and 5.0×10^5 CFU/ml S. aureus or E. coli or K. pneumoniae, P. aeruginosa cells was poured into a single-well omnitray (Nunc) and overlaid with a TSP 96-well plate. One hundred μg of each synthesized peptide was tested. The peptides were also tested against Fusarium oxysporum and Verticillium dahliae, for which ⅓ potato dextrose agarose was used. To test the synergistic effect of peptides, each peptide was mixed in equimolar concentrations. Mix1 (met1-12), Mix2 (met3, 4 and 5), Mix3 (met 8, 9 and 10), Mix 4 (met11, 12) and Mix5 (8, 9, 10, 11, 12) were prepared and tested against E. coli and S. aureus. Gentamicin and vancomycin were included as positive controls for bacteria and amphotericin B was used as the control for fungi.
By using rational design techniques, we have designed variants of peptides by incorporating or replacing various amino acids in the original peptides. Thus, we have designed and modified Chain 100, Chain 200 and Chain 300 with tryptophan (W), arginine (R) and lysine (K) at various positions to improve antimicrobial activity (FIGS. 4a-c and 5a-c). In some peptides we have also used other amino acids such as Leucine (L), Cysteine (C), Isoleucine (I), Phenylalanine (F) and Alanine (A). […]

[3] = test system: Staphylococcus aureus (ATCC 25923); test: Radial diffusion assay (RDA); assay type: cell-based; settings: Peptides 50 μg, Gentamycin 5 μg; diameter including the wells
Procedure: as §1, with “One hundred μg of each synthesized peptide was tested.” left out

[4] = test system: Pseudomonas aeruginosa (ATCC 27853); test: Radial diffusion assay (RDA); assay type: cell-based; settings: Peptides 50 μg, Gentamycin 5 μg; diameter including the wells
Procedure: as §1, with “One hundred μg of each synthesized peptide was tested.” left out

[5] = test system: Klebsiella pneumoniae (ATCC 10031); test: Radial diffusion assay (RDA); assay type: cell-based; settings: Peptides 50 μg, Gentamycin 5 μg; diameter including the wells
Procedure: as §1, with “One hundred μg of each synthesized peptide was tested.” left out

[6] = test system: Escherichia coli (ATCC 25922); test: Radial diffusion assay (RDA); assay type: cell-based; settings: Peptides 50 μg, Gentamycin 5 μg; diameter including the wells
Procedure: as §1, with “One hundred μg of each synthesized peptide was tested.” left out

CC(C)C[C@@H](NC(=O)[C@H](N)CCCNC(=N)N)C(=O)N[C@H](CCCCN)C(=O)N[C@H](CCCNC(=N)N)C(=O)N[C@H](Cc1c[nH]c2ccccc12)C(=O)N[C@H](CCCNC(=N)N)C(=O)N[C@H](CC(C)C)C(=O)N[C@H](Cc1ccccc1)C(=O)N[C@H](CCCNC(=N)N)C(=O)N[C@H](CCCCN)C(=O)N[C@H](CCCNC(=N)N)C(=O)O [Chain306D] (H-[dR][dL][dK][dR][dW][dR][dL][dF][dR][dK][dR]-OH)
activity for the rest of the bacterial strains [1]: > 32 µg/mL

CC(C)C[C@@H](NC(=O)[C@@H](CCCCN)NC(=O)[C@@H](CCCCN)NC(=O)[C@@H](Cc1ccccc1)NC(=O)[C@@H](CC(C)C)NC(=O)[C@@H](Cc1c[nH]c2ccccc12)NC(=O)[C@@H](CCCNC(=N)N)NC(=O)[C@@H](Cc1c[nH]c2ccccc12)NC(=O)[C@@H](CCCCN)NC(=O)[C@@H](CCCNC(=N)N)NC(=O)[C@H](N)CCCCN)C(=O)O [Chain310D] (H-[dK][dR][dK][dW][dR][dW][dL][dF][dK][dK][dL]-OH)
MIC against the MRSA strains along with Ertapenem (MRSA strains): 0.03 µg/mL

Gentamicin [reference compound]
zone of inhibition, four ATCC strains [2]: 22-24 mm
Inhibition zone, Staphylococcus aureus [3]: 24 mm
Inhibition zone, Pseudomonas aeruginosa [4]: 24 mm
Inhibition zone, Klebsiella pneumoniae [5]: 22 mm
Inhibition zone, Escherichia coli [6]: 22 mm
